Source: ChEMBL document CHEMBL5608163, “Structure modification of anoplin for fighting resistant bacteria” (Eur J Med Chem, 2024)
≈ marks a conversion by molar mass, not a printed value. Square brackets hold non-standard residues; d marks the D form. Peptide text beside a SMILES is read from it. * marks the point of attachment. NMeR = CN[C@@H](CCCNC(=N)N)C(=O)O; NMeI = CC[C@H](C)[C@H](NC)C(=O)O; NMeL = CN[C@@H](CC(C)C)C(=O)O; Undecanoyl = CCCCCCCCCCC(=O)*; NMeK = CN[C@@H](CCCCN)C(=O)O

Tests used:
Klebsiella pneumoniae [1] = test: Antimicrobial activity against Klebsiella pneumoniae ATCC 700603 assessed as reduction in microbial growth incubated for 18 hrs by Mueller-Hinton Broth based microdilution assay; type: functional
Pseudomonas aeruginosa [2] = test: Antimicrobial activity against Pseudomonas aeruginosa ATCC 27853 assessed as reduction in microbial growth incubated for 18 hrs by Mueller-Hinton Broth based microdilution assay; type: functional
Staphylococcus aureus [3] = test: Antibacterial activity against Staphylococcus aureus ATCC 25923 assessed as reduction in bacterial growth incubated for 18 hrs by Mueller-Hinton Broth based microdilution assay; type: functional
Bacillus subtilis [4] = test: Antimicrobial activity against Bacillus subtilis ATCC 23857 assessed as reduction in microbial growth incubated for 18 hrs by Mueller-Hinton Broth based microdilution assay; type: functional
Escherichia coli [5] = test: Antibacterial activity against Escherichia coli ATCC 25922 assessed as reduction in bacterial growth incubated for 18 hrs by Mueller-Hinton Broth based microdilution assay; type: functional
Escherichia coli [6] = test: Antibacterial activity against Escherichia coli ATCC 25922 assessed as reduction in bacterial cell growth measured for 18 hrs by Mueller-Hinton broth based two-fold serial dilution method; type: functional
Staphylococcus aureus [7] = test: Antibacterial activity against Staphylococcus aureus ATCC 25923 assessed as reduction in bacterial cell growth measured for 18 hrs by Mueller-Hinton broth based two-fold serial dilution method; type: functional
Pseudomonas aeruginosa [8] = test: Antibacterial activity against Pseudomonas aeruginosa ATCC 27853 assessed as reduction in bacterial cell growth measured for 18 hrs by Mueller-Hinton broth based two-fold serial dilution method; type: functional
Klebsiella pneumoniae [9] = test: Antibacterial activity against Klebsiella pneumoniae ATCC 700603 assessed as reduction in bacterial cell growth measured for 18 hrs by Mueller-Hinton broth based two-fold serial dilution method; type: functional
Bacillus subtilis [10] = test: Antibacterial activity against Bacillus subtilis ATCC 23857 assessed as reduction in bacterial cell growth measured for 18 hrs by Mueller-Hinton broth based two-fold serial dilution method; type: functional
Staphylococcus aureus [11] = test: Antibacterial activity against methicillin-resistant Staphylococcus aureus ATCC 33591 assessed as reduction in bacterial growth incubated for 18 hrs by agar dilution method; type: functional
[12] = Hemolytic activity in human RBC assessed as hemolysis measured after 24 hrs; type: toxicity, cell-based, Erythrocyte; details: red blood cells
Enterococcus faecium = test: Antibacterial activity against vancomycin resistant Enterococcus faecium ATCC 700221 assessed as inhibition of bacterial growth incubated for 48 hrs by CLSI-based broth microdilution assay; type: functional

Compound	MIC (Klebsiella pneumoniae [1])	MIC (Pseudomonas aeruginosa [2])	MIC (Staphylococcus aureus [3])	MIC (Bacillus subtilis [4])	MIC (Escherichia coli [5])	MIC (Escherichia coli [6])	MIC (Staphylococcus aureus [7])	MIC (Pseudomonas aeruginosa [8])	MIC (Klebsiella pneumoniae [9])	MIC (Bacillus subtilis [10])	MIC (Staphylococcus aureus [11])	HC50 at 24 h [12]	MIC (Enterococcus faecium)
CC[C@H](C)[C@@H](C(=O)N[C@@H](CCCCN)C(=O)N[C@H](C(=O)N[C@@H](CC(C)C)C(=O)N[C@@H](CC(C)C)C(N)=O)[C@@H](C)O)N(C)C(=O)[C@H](CCCNC(=N)N)NC(=O)[C@H](CCCCN)NC(=O)[C@H](CC(C)C)NC(=O)[C@H](CC(C)C)NC(=O)CN (H-GLLKR[NMeI]KTLL-NH2)	> 128 µM	> 128 µM	> 128 µM	128 µM	> 128 µM								
CCCCCCCCCCC(=O)NCC(=O)N[C@@H](CC(C)C)C(=O)N[C@@H](CC(C)C)C(=O)N[C@@H](CCCCN)C(=O)N[C@@H](CCCNC(=N)N)C(=O)N[C@H](C(=O)N[C@@H](CCCCN)C(=O)N[C@H](C(=O)N[C@@H](CC(C)C)C(=O)N[C@@H](CC(C)C)C(N)=O)[C@@H](C)O)[C@@H](C)CC (Undecanoyl-GLLKRIKTLL-NH2)						8 µM (≈ 10.6 µg/mL)	8 µM (≈ 10.6 µg/mL)	8 µM (≈ 10.6 µg/mL)	8 µM (≈ 10.6 µg/mL)	4 µM (≈ 5.29 µg/mL)			
CC[C@H](C)[C@H](NC(=O)[C@H](CCCNC(=N)N)NC(=O)[C@H](CCCCN)NC(=O)[C@H](CC(C)C)NC(=O)[C@H](CC(C)C)NC(=O)CN)C(=O)N[C@@H](CCCCN)C(=O)N[C@H](C(=O)N[C@@H](CC(C)C)C(=O)N(C)[C@@H](CC(C)C)C(N)=O)[C@@H](C)O (H-GLLKRIKTL[NMeL]-NH2)	> 128 µM	32 µM	> 128 µM	64 µM	> 128 µM								
CC[C@H](C)[C@H](NC(=O)[C@H](CCCCN)NC(=O)[C@H](CCCCN)NC(=O)[C@H](CC(C)C)NC(=O)[C@H](CC(C)C)NC(=O)CN)C(=O)N[C@@H](CCCCN)C(=O)N[C@@H](Cc1c[nH]c2ccccc12)C(=O)N[C@@H](CC(C)C)C(=O)N[C@@H](CC(C)C)C(N)=O (H-GLLKKIKWLL-NH2)											28.4 µM (≈ 34.4 µg/mL)	152 µM	22.1 µM (≈ 26.8 µg/mL)
CC[C@H](C)[C@H](NC(=O)[C@H](CCCNC(=N)N)NC(=O)[C@H](CCCCN)NC(=O)[C@H](CC(C)C)N(C)C(=O)[C@H](CC(C)C)NC(=O)CN)C(=O)N[C@@H](CCCCN)C(=O)N[C@H](C(=O)N[C@@H](CC(C)C)C(=O)N[C@@H](CC(C)C)C(N)=O)[C@@H](C)O (H-GL[NMeL]KRIKTLL-NH2)	> 128 µM	64 µM	> 128 µM	64 µM	> 128 µM								
CC[C@H](C)[C@H](NC(=O)[C@H](CCCNC(=N)N)NC(=O)[C@H](CCCCN)N(C)C(=O)[C@H](CC(C)C)NC(=O)[C@H](CC(C)C)NC(=O)CN)C(=O)N[C@@H](CCCCN)C(=O)N[C@H](C(=O)N[C@@H](CC(C)C)C(=O)N[C@@H](CC(C)C)C(N)=O)[C@@H](C)O (H-GLL[NMeK]RIKTLL-NH2)	> 128 µM	64 µM	> 128 µM	128 µM	> 128 µM								
CC[C@H](C)[C@H](NC(=O)[C@H](CCCNC(=N)N)N(C)C(=O)[C@H](CCCCN)NC(=O)[C@H](CC(C)C)NC(=O)[C@H](CC(C)C)NC(=O)CN)C(=O)N[C@@H](CCCCN)C(=O)N[C@H](C(=O)N[C@@H](CC(C)C)C(=O)N[C@@H](CC(C)C)C(N)=O)[C@@H](C)O (H-GLLK[NMeR]IKTLL-NH2)	> 128 µM	128 µM	> 128 µM	128 µM	> 128 µM								
CC[C@H](C)[C@H](NC(=O)[C@H](CCCNC(=N)N)NC(=O)[C@H](CCCCN)NC(=O)[C@H](CC(C)C)NC(=O)[C@H](CC(C)C)N(C)C(=O)CN)C(=O)N[C@@H](CCCCN)C(=O)N[C@H](C(=O)N[C@@H](CC(C)C)C(=O)N(C)[C@@H](CC(C)C)C(N)=O)[C@@H](C)O (H-G[NMeL]LKRIKTL[NMeL]-NH2)	> 128 µM	128 µM	> 128 µM	> 128 µM	> 128 µM								
CC[C@H](C)[C@H](NC(=O)[C@H](CCCNC(=N)N)N(C)C(=O)[C@H](CCCCN)N(C)C(=O)[C@H](CC(C)C)NC(=O)[C@H](CC(C)C)NC(=O)CN)C(=O)N[C@@H](CCCCN)C(=O)N[C@H](C(=O)N[C@@H](CC(C)C)C(=O)N[C@@H](CC(C)C)C(N)=O)[C@@H](C)O (H-GLL[NMeK][NMeR]IKTLL-NH2)	> 128 µM	> 128 µM	> 128 µM	> 128 µM	> 128 µM								
